Measurements published in ChEMBL document CHEMBL5370644, “Subplenones A-J: Dimeric Xanthones with Antibacterial Activity from the Endophytic Fungus Subplenodomus sp. CPCC 401465” (2023).
≈ marks a conversion by molar mass, not a printed value.

How the values were obtained:
Type in all cases: functional
Conditions in all cases: time 16-20 hrs
[1] = tested on: Staphylococcus aureus; experiment: Antibacterial activity against methicillin-sensitive Staphylococcus aureus ATCC 29213 assessed as bacterial growth inhibition incubated for 16 to 20 hrs by CLSI based two-fold serial dilution method
[2] = tested on: Enterococcus faecalis; experiment: Antibacterial activity against vancomycin-resistant Enterococcus faecalis ATCC 51299 assessed as bacterial growth inhibition incubated for 16 to 20 hrs by CLSI based two-fold serial dilution method
[3] = tested on: Enterococcus faecium; experiment: Antibacterial activity against vancomycin-resistant Enterococcus faecium ATCC 700221 assessed as bacterial growth inhibition incubated for 16 to 20 hrs by CLSI based two-fold serial dilution method
[4] = tested on: Enterococcus faecalis; experiment: Antibacterial activity against vancomycin-sensitive Enterococcus faecalis ATCC 29212 assessed as bacterial growth inhibition incubated for 16 to 20 hrs by CLSI based two-fold serial dilution method
[5] = tested on: Staphylococcus epidermidis; experiment: Antibacterial activity against methicillin-sensitive Staphylococcus epidermidis ATCC 12228 assessed as bacterial growth inhibition incubated for 16 to 20 hrs by CLSI based two-fold serial dilution method
[6] = tested on: Staphylococcus aureus; experiment: Antibacterial activity against methicillin-resistant Staphylococcus aureus ATCC 700698 assessed as bacterial growth inhibition incubated for 16 to 20 hrs by CLSI based two-fold serial dilution method
[7] = tested on: Staphylococcus aureus; experiment: Antibacterial activity against methicillin-resistant Staphylococcus aureus ATCC 43300 assessed as bacterial growth inhibition incubated for 16 to 20 hrs by CLSI based two-fold serial dilution method

SMILES | MIC [1] | MIC [2] | MIC [3] | MIC [4] | MIC [5] | MIC [6] | MIC [7]
CC1=CC(O)=C2C(=O)c3c(ccc(-c4ccc5c(c4O)C(=O)[C@@]4(O)C(=O)C=C(C)[C@H](O)[C@]4(C)O5)c3O)O[C@]2(C)[C@H]1O | 4 µg/mL (≈ 7.11 µM) | 16 µg/mL (≈ 28.4 µM) | 4 µg/mL (≈ 7.11 µM) | 16 µg/mL (≈ 28.4 µM) | 0.5 µg/mL (≈ 0.889 µM) | 4 µg/mL (≈ 7.11 µM) | 4 µg/mL (≈ 7.11 µM)
CC1=C[C@H](O)[C@]2(O)C(=O)c3c(ccc(-c4ccc5c(c4O)C(=O)C4=C(O)C[C@@H](C)[C@H](O)[C@@]4(C)O5)c3O)O[C@@]2(C)[C@H]1O | 0.5 µg/mL (≈ 0.883 µM) | 4 µg/mL (≈ 7.06 µM) | 1 µg/mL (≈ 1.77 µM) | 2 µg/mL (≈ 3.53 µM) | ≤ 0.125 µg/mL | 0.5 µg/mL (≈ 0.883 µM) | 0.5 µg/mL (≈ 0.883 µM)
CC1=CC(O)=C2C(=O)c3c(ccc(-c4ccc(O)c(C(=O)c5c(O)cc(C)c(O)c5C)c4O)c3O)O[C@@]2(C)[C@H]1O | 1 µg/mL (≈ 1.83 µM) | 4 µg/mL (≈ 7.32 µM) | 1 µg/mL (≈ 1.83 µM) | 2 µg/mL (≈ 3.66 µM) | ≤ 0.125 µg/mL | 0.5 µg/mL (≈ 0.915 µM) | 1 µg/mL (≈ 1.83 µM)
CC1=CC(O)=C2C(=O)c3c(O)ccc(-c4ccc5c(c4O)C(=O)C4=C(O)C=C(C)[C@H](O)[C@]4(C)O5)c3O[C@]2(C)C1=O | 1 µg/mL (≈ 1.84 µM) | 4 µg/mL (≈ 7.35 µM) | 1 µg/mL (≈ 1.84 µM) | 4 µg/mL (≈ 7.35 µM) | 0.25 µg/mL (≈ 0.459 µM) | 0.5 µg/mL (≈ 0.918 µM) | 1 µg/mL (≈ 1.84 µM)
CC1=CC(O)=C2C(=O)c3c(ccc(-c4ccc5c(c4O)C(=O)C4=C(O)C=C(C)C(=O)[C@]4(C)O5)c3O)O[C@@]2(C)C1=O | 1 µg/mL (≈ 1.84 µM) | 4 µg/mL (≈ 7.37 µM) | 1 µg/mL (≈ 1.84 µM) | 4 µg/mL (≈ 7.37 µM) | 0.25 µg/mL (≈ 0.461 µM) | 0.5 µg/mL (≈ 0.922 µM) | 1 µg/mL (≈ 1.84 µM)
CC1=CC(O)=C2C(=O)c3c(O)ccc(-c4ccc5c(c4O)C(=O)C4=C(O)C=C(C)[C@H](O)[C@]4(C)O5)c3O[C@@]2(C)C1=O | 0.5 µg/mL (≈ 0.918 µM) | 2 µg/mL (≈ 3.67 µM) | 0.5 µg/mL (≈ 0.918 µM) | 2 µg/mL (≈ 3.67 µM) | ≤ 0.125 µg/mL | 0.25 µg/mL (≈ 0.459 µM) | 0.5 µg/mL (≈ 0.918 µM)
CC1=CC(O)=C2C(=O)c3c(ccc(-c4ccc5c(c4O)C(=O)C4=C(O)C=C(C)[C@H](O)[C@]4(C)O5)c3O)O[C@@]2(C)[C@H]1O | 2 µg/mL (≈ 3.66 µM) | 128 µg/mL (≈ 234 µM) | 16 µg/mL (≈ 29.3 µM) | 128 µg/mL (≈ 234 µM) | 1 µg/mL (≈ 1.83 µM) | 2 µg/mL (≈ 3.66 µM) | 4 µg/mL (≈ 7.32 µM)
C[C@H]1COc2c(N3CCN(C)CC3)c(F)cc3c(=O)c(C(=O)O)cn1c23 [LEVOFLOXACIN ANHYDROUS] | 0.125 µg/mL (≈ 0.346 µM) | 1 µg/mL (≈ 2.77 µM) | > 64 µg/mL | 1 µg/mL (≈ 2.77 µM) | 0.25 µg/mL (≈ 0.692 µM) | 0.125 µg/mL (≈ 0.346 µM) | 0.125 µg/mL (≈ 0.346 µM)
CC1=CC(O)=C2C(=O)c3c(ccc(-c4ccc5c(c4O)C(=O)C4=C(O)C[C@@H](C)[C@H](O)[C@@]4(C)O5)c3O)O[C@@]2(C)[C@H]1O | 0.5 µg/mL (≈ 0.912 µM) | 4 µg/mL (≈ 7.29 µM) | 1 µg/mL (≈ 1.82 µM) | 2 µg/mL (≈ 3.65 µM) | ≤ 0.125 µg/mL | 0.25 µg/mL (≈ 0.456 µM) | 0.5 µg/mL (≈ 0.912 µM)
CC1=CC(O)=C2C(=O)c3c(ccc(-c4ccc5c(c4O)C(=O)C4=C(O)C=C(C)[C@H](O)[C@]4(C)O5)c3O)O[C@]2(C)C1=O | 0.5 µg/mL (≈ 0.918 µM) | 2 µg/mL (≈ 3.67 µM) | 0.5 µg/mL (≈ 0.918 µM) | 2 µg/mL (≈ 3.67 µM) | ≤ 0.125 µg/mL | 0.25 µg/mL (≈ 0.459 µM) | 0.5 µg/mL (≈ 0.918 µM)
CC1=CC(O)=C2C(=O)c3c(ccc(-c4ccc5c(c4O)C(=O)C4=C(O)C=C(C)[C@H](O)[C@]4(C)O5)c3O)O[C@@]2(C)C1=O | 1 µg/mL (≈ 1.84 µM) | 4 µg/mL (≈ 7.35 µM) | 2 µg/mL (≈ 3.67 µM) | 4 µg/mL (≈ 7.35 µM) | ≤ 0.125 µg/mL | 0.5 µg/mL (≈ 0.918 µM) | 1 µg/mL (≈ 1.84 µM)
